Results as given in publication PMC12732608, “Synthesis and Evaluation of Novel 2-((1H-1,2,4-triazol-5-yl)thio)-N-benzylidene-N-phenylacetohydrazide as Potential Antimicrobial Agents” (International Journal of Molecular Sciences, 2025).
Entries after “also recorded” stand apart in the source; their conditions may differ.

Tests used:
[1] = MTT cytotoxicity assay on HEK cells; type: cell-based; settings: human, HEK (human embryonic kidney) cells, compared to DMSO control, read-out: cell viability
Method: Cytotoxicity was evaluated on HEK (human embryonic kidney) cell lines using the MTT assay. […] Cells were grown in a medium that was supplemented with 10% FBS and 1% penicillin–streptomycin. This was incubated at 37 °C in a 5% CO2 atmosphere for 24 h. Cells were seeded at 1 × 10^3 cells/well in 96-well plates and allowed to adhere overnight. They were then treated with the test compounds, dissolved in DMSO, at a uniform concentration. […] The control wells contained untreated cells or cells treated with DMSO alone. After 24 h of treatment, 10 µL of the MTT solution (5 mg/mL) was added to each well and incubated for 3 h to allow formazan crystal formation. A solubilization solution (100 µL) was then added to dissolve the crystals. The absorbance at 570 nm was measured using a microplate reader. Cell viability was calculated as a percentage relative to the untreated control. All assays were performed in triplicate.

Enterococcus sp. = assay: CFU enumeration (time-kill) against Enterococcus sp.; type: cell-based; settings: over 3 h incubation
Method: (§1) Both Gram-positive and Gram-negative bacterial strains were employed in the experiment to assess antibacterial activities of the synthesized compounds. Gram-negative Klebsiella aerogenes ATCC 13048 and Gram-positive Enterococcus species MVBP-18 strains were used for the study. Bacterial strains of both were cultured in Luria–Bertani (LB) broth for optimal growth conditions. Bacterial cultures were sustained by culturing a fresh colony from newly streaked LB agar plates to 5 mL of LB medium and incubated at 37 °C with shaking at 200 rpm continuously for 16–18 h in order to achieve the logarithmic growth phase. Overnight cultures, after incubation, were standardized by dilution to an OD600 of 0.05, which contained equal bacterial inoculum for any experimental condition. These optimized cultures were employed for subsequent antibacterial tests, such as growth kinetics analysis, to determine the impact of the test compound on bacterial growth. […] Bacterial growth was monitored by both the OD600 readings over 4–7 h and colony-forming unit (CFU) enumeration. For CFU counting, aliquots from the wells were serially diluted, plated on LB agar, and incubated overnight at 37 °C. The resulting colonies were counted to determine the CFU/mL. All validation experiments were also conducted in triplicate.

[2] = system: Enterococcus species MVBP-18; assay: Growth kinetics assay (OD600) against Enterococcus sp.; type: cell-based; settings: 0.5 mg/mL, 6 h, Enterococcus sp. MV BP 18
Method: Both Gram-positive and Gram-negative bacterial strains were employed in the experiment to assess antibacterial activities of the synthesized compounds. Gram-negative Klebsiella aerogenes ATCC 13048 and Gram-positive Enterococcus species MVBP-18 strains were used for the study. Bacterial strains of both were cultured in Luria–Bertani (LB) broth for optimal growth conditions. Bacterial cultures were sustained by culturing a fresh colony from newly streaked LB agar plates to 5 mL of LB medium and incubated at 37 °C with shaking at 200 rpm continuously for 16–18 h in order to achieve the logarithmic growth phase. Overnight cultures, after incubation, were standardized by dilution to an OD600 of 0.05, which contained equal bacterial inoculum for any experimental condition. These optimized cultures were employed for subsequent antibacterial tests, such as growth kinetics analysis, to determine the impact of the test compound on bacterial growth. A preliminary screening was conducted in a 96-well microplate format. Standardized bacterial cultures were treated with the compounds at a final concentration of 0.5 mg/mL. Control wells included untreated bacteria and a DMSO control. The plate was incubated at 37°C, with shaking at 200 rpm continuously, and bacterial growth was monitored by measuring the OD600 every hour for six hours using a microplate reader ( BioTek Synergy H1). […]

[3] = system: Klebsiella aerogenes ATCC 13048; assay: Growth kinetics assay (OD600) against K. aerogenes; type: cell-based; settings: 0.5 mg/mL, 6 h, K. aerogenes ATCC 13048
Method: Both Gram-positive and Gram-negative bacterial strains were employed in the experiment to assess antibacterial activities of the synthesized compounds. Gram-negative Klebsiella aerogenes ATCC 13048 and Gram-positive Enterococcus species MVBP-18 strains were used for the study. Bacterial strains of both were cultured in Luria–Bertani (LB) broth for optimal growth conditions. Bacterial cultures were sustained by culturing a fresh colony from newly streaked LB agar plates to 5 mL of LB medium and incubated at 37 °C with shaking at 200 rpm continuously for 16–18 h in order to achieve the logarithmic growth phase. Overnight cultures, after incubation, were standardized by dilution to an OD600 of 0.05, which contained equal bacterial inoculum for any experimental condition. These optimized cultures were employed for subsequent antibacterial tests, such as growth kinetics analysis, to determine the impact of the test compound on bacterial growth. A preliminary screening was conducted in a 96-well microplate format. Standardized bacterial cultures were treated with the compounds at a final concentration of 0.5 mg/mL. Control wells included untreated bacteria and a DMSO control. The plate was incubated at 37°C, with shaking at 200 rpm continuously, and bacterial growth was monitored by measuring the OD600 every hour for six hours using a microplate reader ( BioTek Synergy H1). The assay was performed in triplicate.

K. aerogenes = assay: CFU enumeration (time-kill) against K. aerogenes; type: cell-based, Klebsiella aerogenes; settings: for effect on viable bacterial count (CFU assay), in words: within 3 h; for terminal viable bacterial count: terminal values (3 h time course)
Method: as §1

E. coli = system: E. coli; design: method as in PMID 22906969; settings: comparable to ampicillin; cited from earlier work
S. aureus = system: S. aureus; design: method as in PMID 22906969; settings: comparable to ampicillin; cited from earlier work
[4] = design: method as in earlier work; settings: comparable to ciprofloxacin; cited from earlier work

| SMILES | viability at 24 h, 0.5 mg/mL [1] [%] | growth inhibition (OD600 growth kinetics) [3] | effect on viable bacterial count (CFU assay), in words (K. aerogenes) | also measured |
| --- | --- | --- | --- | --- |
| O=C(CSc1nc[nH]n1)N(/N=C/c1ccc(Br)cc1)c1ccccc1 [Compound 4e, E-2-((1H-1,2,4-triazol-3-yl)thio)-N′-(4-bromobenzylidene)-N-phenylacetohydrazide] | 87.4 | – | – | – |
| O=C(CSc1nc[nH]n1)N(/N=C/c1ccccc1F)c1ccccc1 [Compound 4g, E-2-((1H-1,2,4-triazol-3-yl)thio)-N′-(2-fluorobenzylidene)-N-phenylacetohydrazide] | 96 | most significant growth inhibition; also recorded: highest degree of growth inhibition | reduced viable numbers by several orders of magnitude | viable bacterial counts (Enterococcus sp.): ~ 10^7 CFU/mL; growth inhibition (OD600 growth kinetics) [2]: most potent inhibitor; viable counts (K. aerogenes; at 2 h, maintained at 3 h): below 10^7 CFU/mL |
| O=C(CSc1nc[nH]n1)N(/N=C/c1c(Cl)cccc1Cl)c1ccccc1 [Compound 4j, E-2-((1H-1,2,4-triazol-3-yl)thio)-N′-(2,6-dichlorobenzylidene)-N-phenylacetohydrazide] | 71.6 | – | – | – |
| O=C(CSc1nc[nH]n1)N(/N=C/c1ccccc1Cl)c1ccccc1 [Compound 4b, E-2-((1H-1,2,4-triazol-3-yl)thio)-N′-(2-chlorobenzylidene)-N-phenylacetohydrazide] | 68.7 | mild inhibitory activities | – | – |
| O=C(CSc1nc[nH]n1)N(/N=C/c1ccccc1)c1ccccc1 [Compound 4a, E-2-((1H-1,2,4-triazol-3-yl)thio)-N′-benzylidene-N-phenylacetohydrazide] | 72.6 | – | – | – |
| NNC(=O)CSc1nc(N=Cc2ccc(Br)cc2)n[nH]1 [2-{3-[4-bromobenzylidene)amino]-1H-1,2,4-triazol-5-ylthio}acetohydrazide] | – | – | – | antibacterial activity (E. coli): strong antibacterial activity; antibacterial activity (S. aureus): strong antibacterial activity |
| O=C(CSc1nc[nH]n1)N(/N=C/c1cccc(Br)c1)c1ccccc1 [Compound 4h, E-2-((1H-1,2,4-triazol-3-yl)thio)-N′-(3-bromobenzylidene)-N-phenylacetohydrazide] | 73 | mild inhibitory activities | – | – |
| COc1cc(/C=N/N(C(=O)CSc2nc[nH]n2)c2ccccc2)cc(OC)c1OC [Compound 4l, E-2-((1H-1,2,4-triazol-3-yl)thio)-N-phenyl-N′-(3,4,5-trimethoxybenzylidene)acetohydrazide] | 55.8 | mild inhibitory activities | moderate-level reduction | terminal viable bacterial count (K. aerogenes): 10^8–10^9 CFU/mL |
| O=C(CSc1nc[nH]n1)N(/N=C/c1cccs1)c1ccccc1 [Compound 4n, E-2-((1H-1,2,4-triazol-3-yl)thio)-N-phenyl-N′-(thiophen-2-ylmethylene)acetohydrazide] | 52.8 | most significant growth inhibition | moderate-level reduction | terminal viable bacterial count (K. aerogenes): 10^8–10^9 CFU/mL |
| Cc1ccc(-n2c(SCC(=O)NC3CCCCC3)nnc2-c2ccncc2)cc1 [N-Cyclohexyl-2-[5-(4-pyridyl)-4-(p-tolyl)-4H-1,2,4-triazole-3-sulfanyl]-acetamide] | – | – | – | antibacterial activity [4]: good level of inhibition |
